Results on 68 molecules are retold here after patent US10189843B2, “Fused pyrazole derivative having autotaxin inhibitory activity” (The University of Tokyo, priority 2014, dated 2019).

The IC50 is the midpoint of a concentration-inhibition curve.

This experiment deals with T1, Human autotaxin enzyme (Homo sapiens, UniProt Q13822).
T1 construct: purchased R&D System
Put plainly: Evaluation of autotaxin inhibitor, Method C (18:0 Lyso PC substrate, choline assay, Resorufin fluorescence). The note with it: Method C (Test Example 3), read-out: Inhibitory activity (enzyme inhibitory activity, IC50). The format is biochemical. The procedure, abridged: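 Recombinant human autotaxin with compound and 200 μM 18:0 Lyso PC (stock) in Tris-HCl pH 7.5, NaCl, MgCl2, Triton X-100, 2 h RT. Released choline detected via choline oxidase/peroxidase/Amplex-type reagent, 20 min, resorufin fluorescence 531/598 nm; % inhibition vs no-compound and no-enzyme controls, concentration-response curve.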
On to `CCCOCC1CN(CC(=O)O)C(=O)c2cc(-c3ccc(Cl)cc3)nn21` (centres unmarked) [Compound I-0253], for which the IC50 was ≥ 1000 nM. To `CCCCC1CN(CC(=O)C2CCCCC2)C(=O)c2cc(-c3ccc(Cl)cc3)nn21` (centres unmarked) [Compound I-0254] belongs 10 to 100 nM; to `CCCCC1CN(Cc2cccnc2)C(=O)c2cc(-c3ccc(Cl)cc3)nn21` (centres unmarked) [Compound I-0255], 10 to 100 nM; to `CCCCC1CN(Cc2ccccn2)C(=O)c2cc(-c3ccc(Cl)cc3)nn21` (centres unmarked) [Compound I-0256], 100 to 1000 nM. The figure for `CCCCC1CN(Cc2ccncc2)C(=O)c2cc(-c3ccc(Cl)cc3)nn21` (centres unmarked) [Compound I-0257] is 100 to 1000 nM; for `CCCCC1CN(Cc2cncn2C)C(=O)c2cc(-c3ccc(Cl)cc3)nn21` (centres unmarked) [Compound I-0258] it is 100 to 1000 nM. To `CCCCC1CN(Cc2ncn(C)n2)C(=O)c2cc(-c3ccc(Cl)cc3)nn21` (centres unmarked) [Compound I-0259] belongs 100 to 1000 nM; to `CCCCC1CN(Cc2ncco2)C(=O)c2cc(-c3ccc(Cl)cc3)nn21` (centres unmarked) [Compound I-0260], 100 to 1000 nM. For the molecule `CCCCC1CN(Cc2nc3ccccc3o2)C(=O)c2cc(-c3ccc(Cl)cc3)nn21` (centres unmarked) [Compound I-0261], the IC50 lay within 100 to 1000 nM.

Turning to `CCCCC1CN(C(C(C)=O)c2ccccc2)C(=O)c2cc(-c3ccc(Cl)cc3)nn21` (centres unmarked) [Compound I-0262], the IC50 was ≥ 1000 nM.

As to `CCCCC1CN(C2CCCCC2=O)C(=O)c2cc(-c3ccc(Cl)cc3)nn21` (centres unmarked) [Compound I-0263], the 50% inhibitory concentration (IC50) was in the range of 100 to 1000 nM. `CCCCC1CN(C2CCN(CC(F)(F)F)C2=O)C(=O)c2cc(-c3ccc(Cl)cc3)nn21` (centres unmarked) [Compound I-0264]: the IC50 is 10 to 100 nM.

In the case of `CCCCC1CN(CCNC(=O)OC(C)(C)C)C(=O)c2cc(-c3ccc(Cl)cc3)nn21` (centres unmarked) [Compound I-0265], the half-maximal inhibitory concentration (IC50) lay in the range of 10 to 100 nM. To `CCCCC1CN(CC2CNC(=O)O2)C(=O)c2cc(-c3ccc(Cl)cc3)nn21` (centres unmarked) [Compound I-0266] belongs 10 to 100 nM. The figure for `CCCCC1CN(CCn2cccc2)C(=O)c2cc(-c3ccc(Cl)cc3)nn21` (centres unmarked) [Compound I-0267] is 100 to 1000 nM; for `CCCCC1CN(CC2CCCO2)C(=O)c2cc(-c3ccc(Cl)cc3)nn21` (centres unmarked) [Compound I-0268] it is 10 to 100 nM; for `CCCCC1CN(CC2CCOC2)C(=O)c2cc(-c3ccc(Cl)cc3)nn21` (centres unmarked) [Compound I-0269] it is 10 to 100 nM. The figure for `CCCCC1CN(CCOc2ccccc2)C(=O)c2cc(-c3ccc(Cl)cc3)nn21` (centres unmarked) [Compound I-0270] is 100 to 1000 nM. On to `CCCCC1CN(CCOC)C(=O)c2cc(-c3ccc(Cl)cc3)nn21` (centres unmarked) [Compound I-0271], for which the IC50 lay in the range of 100 to 1000 nM. To `CCCCC1CN(CC2(c3ccc(OC)cc3)CC2)C(=O)c2cc(-c3ccc(Cl)cc3)nn21` (centres unmarked) [Compound I-0272] belongs ≥ 1000 nM; to `CCCCC1CN(CCN2CCOCC2)C(=O)c2cc(-c3ccc(Cl)cc3)nn21` (centres unmarked) [Compound I-0273], 100 to 1000 nM; to `CCCCC1CN(C2COC2)C(=O)c2cc(-c3ccc(Cl)cc3)nn21` (centres unmarked) [Compound I-0274], 100 to 1000 nM. In the case of `CCCCC1CN(CC2CN(C(C)C)C(=O)O2)C(=O)c2cc(-c3ccc(Cl)cc3)nn21` (centres unmarked) [Compound I-0275], the IC50 was 10 to 100 nM. As to `CCCCC1CN(Cc2ccc(C#N)cc2)C(=O)c2cc(C3=CCC(C(F)(F)F)CC3)nn21` (centres unmarked) [Compound I-0276], the IC50 is 100 to 1000 nM. As to `CCCCC1CN(Cc2ccc(C#N)cc2)C(=O)c2cc(-c3ccc(Cl)cn3)nn21` (centres unmarked) [Compound I-0277], the IC50 fell in the range of 100 to 1000 nM.

Regarding `CCCCC1CN(Cc2ccc(C#N)cc2)C(=O)c2cc(-c3ccc(Cl)cc3CNC)nn21` (centres unmarked) [Compound I-0278], the IC50 was ≥ 1000 nM. Take `CCCCC1CN(CC(=O)N2CCC(C(=O)OC)CC2)C(=O)c2cc(-c3ccc(Cl)cc3)nn21` (centres unmarked) [Compound I-0279]: the IC50 was 10 to 100 nM. For the molecule `CCCCC1CN(Cc2ccc(C#N)cc2)C(=O)c2cc(-c3ccc(Cl)cc3C#N)nn21` (centres unmarked) [Compound I-0280], the IC50 lay in the range of 10 to 100 nM. Consider `CCCCC1CN(Cc2ccc(C#N)cc2)C(=O)c2cc(-c3ccc(Cl)cc3N)nn21` (centres unmarked) [Compound I-0281], for which the half-inhibitory concentration (IC50) was 100 to 1000 nM. To `CCCCC1CN(Cc2ccc(C#N)cc2)C(=O)c2cc(-c3ccc(Cl)cc3CN(C)C)nn21` (centres unmarked) [Compound I-0282] belongs ≥ 1000 nM; to `CCCCC1CN(CC(=O)OC(C)(C)C)C(=O)c2cc(-c3ccc(Cl)cc3)nn21` (centres unmarked) [Compound I-0283], 100 to 1000 nM. As for `CCCCC1CN(Cc2ccc(C#N)cc2)C(=O)c2cc(-c3ccc(Cl)cc3COC)nn21` (centres unmarked) [Compound I-0284], the IC50 is ≥ 1000 nM. The figure for `CC(=O)Nc1cc(Cl)ccc1-c1cc2n(n1)[C@@H](C)CN(Cc1ccc(C#N)cc1)C2=O` [Compound I-0285] is < 10 nM; for `CCCCC1CN(c2ccc(CC(=O)O)cc2)C(=O)c2cc(-c3ccc(Cl)cc3)nn21` (centres unmarked) [Compound I-0286] it is ≥ 1000 nM; for `CCCCC1CN(c2ccc(CCC(=O)O)cc2)C(=O)c2cc(-c3ccc(Cl)cc3)nn21` (centres unmarked) [Compound I-0287] it is ≥ 1000 nM. Regarding `CCCCC1CN(CN)C(=O)c2cc(-c3ccc(Cl)cc3)nn21` (centres unmarked) [Compound I-0288], the IC50 was ≥ 1000 nM. To `CCCCC1CN(CNC(=O)CC#N)C(=O)c2cc(-c3ccc(Cl)cc3)nn21` (centres unmarked) [Compound I-0289] belongs 10 to 100 nM; to `CCCCC1CN(CNC(=O)CO)C(=O)c2cc(-c3ccc(Cl)cc3)nn21` (centres unmarked) [Compound I-0290], 100 to 1000 nM; to `CCCOCC1CN(Cc2ccc(C#N)cc2)C(=O)c2cc(-c3ccc(Cl)cc3)nn21` (centres unmarked) [Compound I-0291], 10 to 100 nM. To `CCCCC1CN(C2CCN(CC#N)C2=O)C(=O)c2cc(-c3ccc(Cl)cc3)nn21` (centres unmarked) [Compound I-0292] belongs 10 to 100 nM; to `CCCCC1CN(Cc2ccc(C#N)cc2)C(=O)c2cc(-c3ccc(Cl)cc3CC#N)nn21` (centres unmarked) [Compound I-0293], 100 to 1000 nM. The figure for `CCCCC1CN(CC(=O)OCC)C(=O)c2cc(-c3ccc(Cl)cc3)nn21` (centres unmarked) [Compound I-0294] is 10 to 100 nM; for `CCCCCC1CN(CC(=O)N2CCC(C(=O)NC3(C#N)CC3)CC2)C(=O)c2cc(-c3ccc(Cl)cc3)nn21` (centres unmarked) [Compound I-0295] it is 10 to 100 nM.

As to `C[C@H]1CN(Cc2ccc(C#N)cc2)C(=O)c2cc(-c3ccc(Cl)cc3C=O)nn21` [Compound I-0296], the IC50 lay within 100 to 1000 nM. As to `C[C@H]1CN(Cc2ccc(C#N)cc2)C(=O)c2cc(-c3ccc(Cl)cc3CO)nn21` [Compound I-0297], the IC50 was in the range of 100 to 1000 nM. The figure for `C[C@H]1CN(Cc2ccc(C#N)cc2)C(=O)c2cc(-c3ccc(Cl)cc3C#N)nn21` [Compound I-0298] is 100 to 1000 nM; for `CCCCC1CN(CC2CN(CC#N)C(=O)O2)C(=O)c2cc(-c3ccc(Cl)cc3)nn21` (centres unmarked) [Compound I-0299] it is 10 to 100 nM. With `C[C@H]1CN(Cc2ccc(C#N)cc2)C(=O)c2cc(-c3ccc(Cl)cc3CC#N)nn21` [Compound I-0300], the IC50 is ≥ 1000 nM. For the molecule `CCCCC1CN(Cc2ccc(C#N)cc2)C(=O)c2cc(N(C)Cc3ccc(Cl)cc3)nn21` (centres unmarked) [Compound I-0301], the IC50 is ≥ 1000 nM. As to `CCCCC1CN(Cc2ccc(C#N)cc2)C(=O)c2cc(N3CCC(F)(F)CC3)nn21` (centres unmarked) [Compound I-0302], the IC50 lay in the range of 100 to 1000 nM. To `CCCCC1CN(Cc2ccc(C#N)cc2)C(=O)c2cc(N3CC(c4ccccc4)C3)nn21` (centres unmarked) [Compound I-0303] belongs ≥ 1000 nM; to `CCCCC1CN(Cc2ccc(C#N)cc2)C(=O)c2cc(N3CCC(C#N)CC3)nn21` (centres unmarked) [Compound I-0304], ≥ 1000 nM; to `CCCCC1CN(Cc2ccc(C#N)cc2)C(=O)c2cc(N3CCC(C(F)(F)F)CC3)nn21` (centres unmarked) [Compound I-0305], 100 to 1000 nM. As for `CCCCC1CN(Cc2ccc(C#N)cc2)C(=O)c2cc(N3Cc4ccccc4C3)nn21` (centres unmarked) [Compound I-0306], the IC50 was ≥ 1000 nM. For `CCCCC1CN(Cc2ccc(C#N)cc2)C(=O)c2cc(N3[C@@H]4CC[C@H]3CC(F)(F)C4)nn21` (some centres unmarked) [Compound I-0307], the IC50 is ≥ 1000 nM. Take `CCCCC1CN(Cc2ccc(C#N)cc2)C(=O)c2cc(-c3ccc(Cl)cc3NS(C)(=O)=O)nn21` (centres unmarked) [Compound I-0308]: the IC50 is ≥ 1000 nM. The figure for `CCCCC1CN(Cc2ccc(C#N)cc2)C(=O)c2cc(-c3ccc(Cl)cc3NC(=O)NC)nn21` (centres unmarked) [Compound I-0309] is 100 to 1000 nM; for `CCCCCC1CN(c2ccc(C(=O)N(C)C)cc2)C(=O)c2cc(-c3ccc(Cl)cc3)nn21` (centres unmarked) [Compound I-0310] it is ≥ 1000 nM; for `O=C(O)c1cccc(CN2CC(COCC(F)(F)F)n3nc(-c4ccc(Cl)cc4)cc3C2=O)c1` (centres unmarked) [Compound I-0311] it is < 10 nM. For the molecule `CCCCC[C@@H]1CN(CC(=O)N2CCC(C(=O)O)CC2)C(=O)c2cc(-c3ccc(Cl)cc3)nn21` [Compound I-0312], the IC50 was 10 to 100 nM. To `CCCCC[C@@H]1CN(CC(=O)N2CCC(C(=O)O)CC2)C(=O)c2cc(-c3ccc(Cl)cc3)nn21` [Compound I-0313] belongs < 10 nM; to `N#CC1(NC(=O)CN2CC(COCC(F)(F)F)n3nc(-c4ccc(Cl)cc4)cc3C2=O)CC1` (centres unmarked) [Compound I-0314], 100 to 1000 nM; to `CC(C)(O)CNC(=O)CN1CC(COCC(F)(F)F)n2nc(-c3ccc(Cl)cc3)cc2C1=O` (centres unmarked) [Compound I-0315], 100 to 1000 nM. `CC(=O)Nc1cc(Cl)ccc1-c1cc2n(n1)[C@@H](C)CN(C[C@H]1CNC(=O)O1)C2=O` [Compound I-0316]: the half-maximal inhibitory concentration (IC50) lay in the range of 10 to 100 nM.

In the case of `CC(=O)Nc1cc(Cl)ccc1-c1cc2n(n1)[C@@H](C)CN(C[C@@H]1CNC(=O)O1)C2=O` [Compound I-0317], the IC50 is 100 to 1000 nM. Turning to `O=C(O)C1CCN(C(=O)CN2CC(COCC(F)(F)F)n3nc(-c4ccc(Cl)cc4)cc3C2=O)CC1` (centres unmarked) [Compound I-0318], the concentration for half-maximal inhibition (IC50) is < 10 nM. To `CCCOCC1CN(CC(=O)N2CCC(C(=O)O)CC2)C(=O)c2cc(-c3ccc(Cl)cc3)nn21` (centres unmarked) [Compound I-0319] belongs < 10 nM. With `C[C@H]1CN(Cc2ccc(C#N)cc2)C(=O)c2cc(-c3ccc(Cl)cc3N)nn21` [Compound I-0320], the IC50 was ≥ 1000 nM.
